Format in all cases: cell-based
In data set [1] the target is T1, OCT1 (Homo sapiens, UniProt O15245).
T1 construct: expressed in transfected cells; host or cells: HEK-293T
T1 sequence (O15245 1-554): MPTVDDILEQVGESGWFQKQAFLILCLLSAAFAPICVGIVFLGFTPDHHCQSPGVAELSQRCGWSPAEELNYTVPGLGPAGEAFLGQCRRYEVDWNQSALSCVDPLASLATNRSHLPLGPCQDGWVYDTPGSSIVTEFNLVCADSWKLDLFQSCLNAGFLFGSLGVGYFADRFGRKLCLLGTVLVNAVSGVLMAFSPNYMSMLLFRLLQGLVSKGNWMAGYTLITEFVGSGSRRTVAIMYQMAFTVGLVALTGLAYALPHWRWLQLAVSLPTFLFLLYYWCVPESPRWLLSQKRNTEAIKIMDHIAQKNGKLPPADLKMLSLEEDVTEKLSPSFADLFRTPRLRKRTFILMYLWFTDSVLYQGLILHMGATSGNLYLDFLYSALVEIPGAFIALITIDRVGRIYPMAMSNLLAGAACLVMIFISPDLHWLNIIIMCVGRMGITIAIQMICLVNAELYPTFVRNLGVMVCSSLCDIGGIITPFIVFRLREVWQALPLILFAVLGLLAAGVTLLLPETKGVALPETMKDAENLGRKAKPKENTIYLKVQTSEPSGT
Kind of data set: Inhibition of radioactively labeled substrate uptake in transfected HEK-293T cells. The conditions noted are these: 10 μmol/L, 5 minutes; [3H]1-Methyl-4-phenylpyridinium. Here is the method:
(§1) HEK-293T cells were transfected with human tissue-specific hepatocytic transporters. Then the uptake of the polymethine dye DY-635 as a targeting unit into these tissue-specific transporters was investigated for FIG. 10 A. To do so, the cells were sown onto 96 well plates, incubated for 24 hours under standard conditions, then incubated 5 minutes with DY-635 (final concentration in the well: 10 μmol/L) after changing the medium. Next the cells were lysed and the lysates were measured by fluorimetry. […] The uptake by OCT1 can be evaluated as negligible. In FIG. 10 B the question of whether DY-635 binds as an inhibitor to the basolateral hepatocytic transporters was investigated. For this purpose, the HEK-293T cells transfected with the tissue-specific transporters were sown and incubated as described above. After 24 hours the cells were incubated for 5 minutes with either a radioactively labeled transporter-specific substrate or with the radioactive-specific substrate with a specific inhibitor or with DY-635 (10 μmol/L final concentration) (the substrates and their concentrations are shown in Table 3 below). The cells were then washed and lysed in the well. To quantify the uptake, the radioactive radiation of the substrates was used. […] This illustrates the strong interaction of DY-635 with the tissue-specific hepatocytic transporters. It can be concluded that by exposure of DY-635 to the surface of a nanostructured transporter system, immobilization on the cell surface of the hepatocyte occurs, resulting in subsequent endocytosis of the nanoparticle.

The target in another data set is T2, OATP1B1 (Homo sapiens, UniProt Q9Y6L6).
T2 construct: expressed in transfected cells; host or cells: HEK-293T
T2 sequence (Q9Y6L6 1-691): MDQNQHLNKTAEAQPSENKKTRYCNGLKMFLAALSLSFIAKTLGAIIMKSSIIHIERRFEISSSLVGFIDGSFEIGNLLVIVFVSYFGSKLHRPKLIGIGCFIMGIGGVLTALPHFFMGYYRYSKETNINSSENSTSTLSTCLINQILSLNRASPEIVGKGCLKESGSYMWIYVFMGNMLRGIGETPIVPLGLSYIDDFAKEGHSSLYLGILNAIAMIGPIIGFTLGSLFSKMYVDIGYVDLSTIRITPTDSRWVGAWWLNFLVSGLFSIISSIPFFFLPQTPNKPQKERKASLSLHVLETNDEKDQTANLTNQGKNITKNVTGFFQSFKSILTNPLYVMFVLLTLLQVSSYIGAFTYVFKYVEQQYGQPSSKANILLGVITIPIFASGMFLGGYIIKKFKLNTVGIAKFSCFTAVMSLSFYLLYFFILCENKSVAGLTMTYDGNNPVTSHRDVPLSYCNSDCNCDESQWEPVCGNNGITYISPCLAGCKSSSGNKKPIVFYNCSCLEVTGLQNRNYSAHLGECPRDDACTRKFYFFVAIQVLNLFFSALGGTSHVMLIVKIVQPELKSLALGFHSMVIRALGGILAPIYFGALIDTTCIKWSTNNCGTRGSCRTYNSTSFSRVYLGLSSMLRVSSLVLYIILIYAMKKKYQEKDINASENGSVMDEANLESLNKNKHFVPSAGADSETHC
Described as above. Conditions: 10 μmol/L, 5 minutes; [3H]Estradiol 30 nM. Here is the method: as §1

A further data set addresses T3, OATP1B3 (Homo sapiens, UniProt Q9NPD5).
T3 construct: expressed in transfected cells; host or cells: HEK-293T
T3 sequence (Q9NPD5 1-702): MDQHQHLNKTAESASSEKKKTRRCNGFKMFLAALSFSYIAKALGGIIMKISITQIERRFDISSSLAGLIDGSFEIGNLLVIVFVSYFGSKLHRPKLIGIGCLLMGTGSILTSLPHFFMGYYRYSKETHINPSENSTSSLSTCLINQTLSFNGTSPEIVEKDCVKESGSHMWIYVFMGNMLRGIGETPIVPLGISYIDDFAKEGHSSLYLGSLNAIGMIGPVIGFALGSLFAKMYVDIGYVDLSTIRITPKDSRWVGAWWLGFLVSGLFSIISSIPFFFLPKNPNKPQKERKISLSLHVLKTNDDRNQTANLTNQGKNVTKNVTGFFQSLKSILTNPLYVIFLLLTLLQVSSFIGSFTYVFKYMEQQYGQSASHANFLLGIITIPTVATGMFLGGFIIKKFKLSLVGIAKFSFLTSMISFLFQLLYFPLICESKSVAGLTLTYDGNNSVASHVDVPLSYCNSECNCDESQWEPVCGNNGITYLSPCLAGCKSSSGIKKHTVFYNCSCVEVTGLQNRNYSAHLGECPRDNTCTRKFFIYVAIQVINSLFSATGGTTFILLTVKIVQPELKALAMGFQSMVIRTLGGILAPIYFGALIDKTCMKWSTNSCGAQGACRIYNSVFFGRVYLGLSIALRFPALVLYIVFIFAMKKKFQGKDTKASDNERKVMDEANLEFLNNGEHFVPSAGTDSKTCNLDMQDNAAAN
The data set is described as above. Conditions: 10 μmol/L, 5 minutes; [3H]Sulfobromophthalein. Here is the method: as §1

A further data set concerns the target T4, OAT2 (Homo sapiens, UniProt Q9Y694).
T4 construct: expressed in transfected cells; host or cells: HEK-293T
T4 sequence (Q9Y694 1-548): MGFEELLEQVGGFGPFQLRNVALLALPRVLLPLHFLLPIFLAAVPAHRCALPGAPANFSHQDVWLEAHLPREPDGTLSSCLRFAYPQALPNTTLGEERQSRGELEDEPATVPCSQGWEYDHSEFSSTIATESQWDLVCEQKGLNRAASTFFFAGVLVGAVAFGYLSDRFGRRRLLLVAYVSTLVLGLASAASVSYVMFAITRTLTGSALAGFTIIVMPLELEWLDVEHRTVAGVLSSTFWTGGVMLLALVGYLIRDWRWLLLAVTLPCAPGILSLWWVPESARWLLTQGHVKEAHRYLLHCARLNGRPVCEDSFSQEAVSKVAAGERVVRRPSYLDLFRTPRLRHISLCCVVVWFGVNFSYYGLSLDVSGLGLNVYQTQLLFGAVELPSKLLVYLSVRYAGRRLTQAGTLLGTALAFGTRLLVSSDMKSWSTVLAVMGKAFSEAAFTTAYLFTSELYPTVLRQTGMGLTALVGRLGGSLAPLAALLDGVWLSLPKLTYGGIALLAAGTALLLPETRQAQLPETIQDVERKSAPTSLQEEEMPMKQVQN
The description is as above. Conditions: 10 μmol/L, 5 minutes; [3H]cGMP 10 nM. As to the method:
as §1

The target of data set [2] is T1, OCT1. In words: Uptake of DY-635 into transporter-transfected HEK-293T cells. The conditions noted are these: 10 μmol/L, 5 minutes. Here is the method: as §1, with “It can be concluded that by exposure of DY-635 to the surface of a nanostructured transporter system, immobilization on the cell surface of the hepatocyte occurs, resulting in subsequent endocytosis of the nanoparticle.” left out

The next data set concerns the target T5, NTCP (Homo sapiens, UniProt Q14973).
T5 construct: expressed in transfected cells; host or cells: HEK-293T
T5 sequence (Q14973 1-349): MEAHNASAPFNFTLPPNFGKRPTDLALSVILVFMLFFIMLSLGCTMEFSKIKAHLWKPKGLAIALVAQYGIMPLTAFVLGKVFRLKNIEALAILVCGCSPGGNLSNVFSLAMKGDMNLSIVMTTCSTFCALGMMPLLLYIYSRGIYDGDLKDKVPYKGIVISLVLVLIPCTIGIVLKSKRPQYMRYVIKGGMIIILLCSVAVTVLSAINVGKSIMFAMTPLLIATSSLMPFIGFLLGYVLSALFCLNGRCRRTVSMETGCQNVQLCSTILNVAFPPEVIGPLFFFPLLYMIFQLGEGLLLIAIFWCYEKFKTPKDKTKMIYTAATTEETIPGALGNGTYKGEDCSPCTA
The data set is described as above. The conditions noted are these: 10 μmol/L, 5 minutes. Here is the method: as §1, with “It can be concluded that by exposure of DY-635 to the surface of a nanostructured transporter system, immobilization on the cell surface of the hepatocyte occurs, resulting in subsequent endocytosis of the nanoparticle.” left out

`CC(C)(C)C1=CC(=CC=CC2=[N+](CCCCCC(=O)O)c3ccc(S(=O)(=O)[O-])cc3C2(C)C)c2cc3c4c(c2O1)CCCN4CCC3` [DY-635]: the “inhibition of OCT1” value on OCT1 [1] is “inhibited”. Besides, the “inhibition of OATP1B1” value on OATP1B1 is reported as “strong indicator”. In addition, the “inhibition of OATP1B3” value on OATP1B3 was “strong indicator”. Besides, on OAT2, the “inhibition of OAT2” value is “inhibited”. In addition, at OCT1 [2], the “uptake of DY-635 by OCT1” value was “negligible”. Also, the “uptake of DY-635 by NTCP” value on NTCP was “substrate for NTCP”.

The values are drawn from US9795688B2, “Cell-specific targeting using nanostructured delivery systems” (SmartDyeLivery GmbH, priority 2013, dated 2017).
